Results as given in PubChem BioAssay (NCI).
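96-well plates; 48 h exposure; 5 concentrations. Endpoints by linear interpolation between flanking doses. Not reached: highest tested concentration assigned. Abbreviation: GI50, concentration required for 50% inhibition of growth. Definition used: TGI = concentration required for complete inhibition of growth.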

Key:
Test in all cases: inhibition of tumour cell growth, NCI panel, 48 h
[1] = test system: NCI-H226 lung
[2] = test system: COLO 205 colon
[3] = test system: SK-MEL-28 melanoma
[4] = test system: A549 NSCLC
[5] = test system: T-47D breast
[6] = test system: SF-295 CNS
[7] = test system: MDA-MB-435
[8] = test system: RXF 393 renal
[9] = test system: RPMI-8226 leukemia
[10] = test system: OVCAR-5 ovarian

Compound | GI50 [1] | TGI [1] | GI50 [2] | TGI [2] | GI50 [3] | TGI [3] | GI50 [4] | TGI [4] | GI50 [5] | TGI [5] | GI50 [6] | TGI [6] | GI50 [7] | TGI [7] | GI50 [8] | TGI [8] | GI50 [9] | TGI [9] | GI50 [10] | TGI [10]
Oc1[nH]c2ccccc2c1/C=c1/ccc2c(c1)N=C(c1ccc(C(F)(F)F)cc1)N=2 | 14.5 µM | 30.5 µM | 9.89 µM | 22.1 µM | 3.11 µM | 16.2 µM | 4.81 µM | 17.8 µM | 3.58 µM | 14.4 µM | 2.7 µM | 12.2 µM | 1.17 µM | 5.69 µM | 2.21 µM | 4.32 µM | 1.34 µM | 4 µM | 10.1 µM | 22 µM
COc1ccc(C(=O)c2cc3c(N)c(C(=O)Nc4cccc(Br)c4C)sc3nc2C)cc1 | 0.173 µM | > 100 µM | 0.22 µM | 0.987 µM | > 100 µM | > 100 µM | 0.132 µM | > 100 µM | 50.4 µM | > 100 µM | 0.0405 µM |  | 0.0223 µM | 0.0585 µM | 0.0214 µM |  | 0.037 µM |  | 0.187 µM | > 100 µM
